Assay results reported in ChEMBL document CHEMBL4507291 (2021).

What was measured:
[1] = test system: Serine/threonine-protein kinase B-raf (Homo sapiens), P15056 [V600E]; experiment: BRAF V599E Kinase screen; conditions: Compound concentration 1.0 uM
[2] = biological target: Calcium/calmodulin-dependent protein kinase type 1D (Homo sapiens) (UniProt Q8IU85); experiment: CAMK1D (CaMKI delta) Kinase screen; conditions: Compound concentration 1.0 uM
[3] = biological target: Dual specificity protein kinase CLK1 (Homo sapiens) (UniProt P49759); experiment: CLK1 Kinase screen; conditions: Compound concentration 1.0 uM
[4] = biological target: Casein kinase I isoform epsilon (Homo sapiens) (UniProt P49674); experiment: CSNK1E (CK1 epsilon) Kinase screen; conditions: Compound concentration 1.0 uM
[5] = biological target: T1, Serine/threonine-protein kinase DCLK2 (Homo sapiens) (UniProt Q8N568); experiment: DCAMKL2 (DCK2) Kinase screen; conditions: Compound concentration 1.0 uM
T1 sequence (whole entry): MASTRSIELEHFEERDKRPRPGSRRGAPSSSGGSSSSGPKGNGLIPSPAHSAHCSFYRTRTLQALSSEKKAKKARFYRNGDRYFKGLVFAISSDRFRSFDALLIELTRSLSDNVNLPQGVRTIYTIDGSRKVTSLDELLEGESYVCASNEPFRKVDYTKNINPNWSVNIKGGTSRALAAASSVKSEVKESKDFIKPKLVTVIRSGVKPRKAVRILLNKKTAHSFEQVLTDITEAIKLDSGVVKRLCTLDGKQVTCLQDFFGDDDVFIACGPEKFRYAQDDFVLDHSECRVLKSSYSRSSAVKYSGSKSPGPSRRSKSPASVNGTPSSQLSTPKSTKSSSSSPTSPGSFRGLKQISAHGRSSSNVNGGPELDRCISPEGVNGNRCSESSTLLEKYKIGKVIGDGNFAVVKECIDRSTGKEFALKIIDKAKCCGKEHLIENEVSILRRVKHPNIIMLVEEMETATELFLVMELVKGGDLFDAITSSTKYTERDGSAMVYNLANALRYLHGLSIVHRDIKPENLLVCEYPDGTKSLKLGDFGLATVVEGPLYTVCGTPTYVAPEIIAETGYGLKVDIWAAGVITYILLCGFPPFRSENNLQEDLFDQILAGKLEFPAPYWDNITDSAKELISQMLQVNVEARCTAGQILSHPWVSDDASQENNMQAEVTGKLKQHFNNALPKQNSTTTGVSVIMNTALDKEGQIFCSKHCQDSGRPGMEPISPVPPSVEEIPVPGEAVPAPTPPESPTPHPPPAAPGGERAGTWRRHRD

[6] = biological target: Tyrosine-protein kinase Fer (Homo sapiens) (UniProt P16591); experiment: FER Kinase screen; conditions: Compound concentration 1.0 uM
[7] = biological target: Dual specificity mitogen-activated protein kinase kinase 1 (Homo sapiens) (UniProt Q02750); experiment: MAP2K1 (MEK1) Kinase screen; conditions: Compound concentration 1.0 uM
[8] = biological target: T2, Serine/threonine-protein kinase 3 (Homo sapiens) (UniProt Q13188); experiment: STK3 (MST2) Kinase screen; conditions: Compound concentration 1.0 uM
T2 sequence (whole entry): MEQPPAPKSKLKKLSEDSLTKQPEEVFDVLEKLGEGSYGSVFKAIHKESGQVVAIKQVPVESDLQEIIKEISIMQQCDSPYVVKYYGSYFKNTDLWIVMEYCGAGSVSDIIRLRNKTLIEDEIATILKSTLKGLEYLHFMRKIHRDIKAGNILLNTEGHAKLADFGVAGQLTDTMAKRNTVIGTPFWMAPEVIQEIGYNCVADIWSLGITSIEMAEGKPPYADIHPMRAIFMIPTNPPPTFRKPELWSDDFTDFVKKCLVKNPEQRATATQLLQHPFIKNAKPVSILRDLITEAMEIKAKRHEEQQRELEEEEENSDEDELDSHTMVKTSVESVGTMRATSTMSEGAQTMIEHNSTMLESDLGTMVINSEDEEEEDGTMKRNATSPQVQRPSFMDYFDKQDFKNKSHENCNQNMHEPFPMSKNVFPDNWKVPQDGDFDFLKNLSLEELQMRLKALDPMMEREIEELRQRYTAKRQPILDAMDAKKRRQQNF

[9] = biological target: T3, Serine/threonine-protein kinase TAO3 (Homo sapiens) (UniProt Q9H2K8); experiment: TAOK3 (JIK) Kinase screen; conditions: Compound concentration 1.0 uM
T3 sequence (whole entry): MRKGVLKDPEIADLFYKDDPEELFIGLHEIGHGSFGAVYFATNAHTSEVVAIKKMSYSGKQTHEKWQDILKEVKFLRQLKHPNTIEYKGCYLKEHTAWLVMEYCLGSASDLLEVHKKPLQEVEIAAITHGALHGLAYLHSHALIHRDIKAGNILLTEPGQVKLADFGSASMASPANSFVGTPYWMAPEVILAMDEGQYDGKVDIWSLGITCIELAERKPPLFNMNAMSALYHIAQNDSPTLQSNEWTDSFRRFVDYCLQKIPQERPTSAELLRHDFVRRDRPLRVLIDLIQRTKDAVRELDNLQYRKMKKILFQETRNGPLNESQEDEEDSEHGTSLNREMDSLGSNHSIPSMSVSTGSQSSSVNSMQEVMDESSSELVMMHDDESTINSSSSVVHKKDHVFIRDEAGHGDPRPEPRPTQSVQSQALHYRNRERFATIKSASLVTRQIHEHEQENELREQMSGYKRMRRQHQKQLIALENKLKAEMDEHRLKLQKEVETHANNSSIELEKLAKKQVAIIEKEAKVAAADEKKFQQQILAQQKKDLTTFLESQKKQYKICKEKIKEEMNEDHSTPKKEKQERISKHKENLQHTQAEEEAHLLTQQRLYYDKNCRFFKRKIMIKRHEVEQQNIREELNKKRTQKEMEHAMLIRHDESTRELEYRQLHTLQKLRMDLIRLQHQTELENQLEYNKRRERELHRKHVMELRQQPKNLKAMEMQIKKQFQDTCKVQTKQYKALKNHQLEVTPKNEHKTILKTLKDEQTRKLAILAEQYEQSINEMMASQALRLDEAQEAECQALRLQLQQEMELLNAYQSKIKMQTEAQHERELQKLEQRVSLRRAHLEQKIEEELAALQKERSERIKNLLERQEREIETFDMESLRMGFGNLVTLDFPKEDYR

[10] = biological target: Wee1-like protein kinase (Homo sapiens) (UniProt P30291); experiment: WEE1 Kinase screen; conditions: Compound concentration 1.0 uM
[11] = biological target: T4, Muscarinic acetylcholine receptor M1 (Homo sapiens) (UniProt P11229); conditions: Compound concentration 10.0 uM
T4 sequence (whole entry): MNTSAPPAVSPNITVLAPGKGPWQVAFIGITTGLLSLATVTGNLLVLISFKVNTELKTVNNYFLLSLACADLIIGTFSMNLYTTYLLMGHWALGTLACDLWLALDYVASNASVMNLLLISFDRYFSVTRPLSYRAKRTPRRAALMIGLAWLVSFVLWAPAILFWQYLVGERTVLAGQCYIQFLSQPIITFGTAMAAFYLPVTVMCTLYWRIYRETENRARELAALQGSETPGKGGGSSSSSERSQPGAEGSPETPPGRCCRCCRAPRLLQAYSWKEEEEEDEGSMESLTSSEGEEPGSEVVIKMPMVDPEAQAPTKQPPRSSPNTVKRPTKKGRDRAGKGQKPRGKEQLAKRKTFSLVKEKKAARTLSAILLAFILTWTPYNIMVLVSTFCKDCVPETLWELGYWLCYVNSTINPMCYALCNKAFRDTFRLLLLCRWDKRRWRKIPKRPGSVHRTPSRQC

Measured: inhibition

Sequence of Tyrosine-protein kinase Fer (Homo sapiens) (P16591 whole entry, looked up): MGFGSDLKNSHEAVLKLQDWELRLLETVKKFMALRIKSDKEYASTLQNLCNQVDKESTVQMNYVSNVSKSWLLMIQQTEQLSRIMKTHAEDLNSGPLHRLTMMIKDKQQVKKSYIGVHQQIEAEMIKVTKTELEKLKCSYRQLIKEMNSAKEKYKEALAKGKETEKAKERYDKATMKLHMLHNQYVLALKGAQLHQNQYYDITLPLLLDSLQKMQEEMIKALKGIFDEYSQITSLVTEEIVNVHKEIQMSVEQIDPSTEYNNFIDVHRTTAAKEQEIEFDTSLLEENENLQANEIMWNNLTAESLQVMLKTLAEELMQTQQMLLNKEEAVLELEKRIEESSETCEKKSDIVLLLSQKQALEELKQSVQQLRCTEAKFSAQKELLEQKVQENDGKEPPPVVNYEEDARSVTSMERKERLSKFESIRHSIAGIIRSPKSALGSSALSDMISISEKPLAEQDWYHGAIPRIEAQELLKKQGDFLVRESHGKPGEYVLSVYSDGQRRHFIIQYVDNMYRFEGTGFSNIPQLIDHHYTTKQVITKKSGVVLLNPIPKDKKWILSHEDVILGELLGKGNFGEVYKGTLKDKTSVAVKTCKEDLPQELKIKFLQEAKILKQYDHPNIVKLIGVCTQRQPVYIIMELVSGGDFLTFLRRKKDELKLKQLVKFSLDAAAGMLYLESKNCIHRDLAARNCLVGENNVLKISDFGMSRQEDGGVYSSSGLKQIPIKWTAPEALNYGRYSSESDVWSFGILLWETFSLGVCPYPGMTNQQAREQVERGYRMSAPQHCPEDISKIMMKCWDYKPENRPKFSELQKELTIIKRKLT
Sequence of Dual specificity protein kinase CLK1 (Homo sapiens) (P49759 whole entry, looked up, canonical isoform): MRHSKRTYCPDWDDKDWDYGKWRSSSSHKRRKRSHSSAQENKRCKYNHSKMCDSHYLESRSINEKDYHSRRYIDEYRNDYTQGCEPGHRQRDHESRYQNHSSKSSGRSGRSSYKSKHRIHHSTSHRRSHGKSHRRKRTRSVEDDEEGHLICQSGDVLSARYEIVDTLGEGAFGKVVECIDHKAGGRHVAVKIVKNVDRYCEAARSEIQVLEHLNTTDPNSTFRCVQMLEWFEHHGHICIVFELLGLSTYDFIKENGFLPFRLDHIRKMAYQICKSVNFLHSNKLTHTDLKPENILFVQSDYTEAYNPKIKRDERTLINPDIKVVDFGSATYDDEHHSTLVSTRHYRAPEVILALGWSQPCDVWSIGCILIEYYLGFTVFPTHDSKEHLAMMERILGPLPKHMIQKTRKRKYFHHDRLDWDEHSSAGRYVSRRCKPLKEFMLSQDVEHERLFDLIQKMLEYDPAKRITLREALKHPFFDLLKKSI
Sequence of Casein kinase I isoform epsilon (Homo sapiens) (P49674 whole entry, looked up, canonical isoform): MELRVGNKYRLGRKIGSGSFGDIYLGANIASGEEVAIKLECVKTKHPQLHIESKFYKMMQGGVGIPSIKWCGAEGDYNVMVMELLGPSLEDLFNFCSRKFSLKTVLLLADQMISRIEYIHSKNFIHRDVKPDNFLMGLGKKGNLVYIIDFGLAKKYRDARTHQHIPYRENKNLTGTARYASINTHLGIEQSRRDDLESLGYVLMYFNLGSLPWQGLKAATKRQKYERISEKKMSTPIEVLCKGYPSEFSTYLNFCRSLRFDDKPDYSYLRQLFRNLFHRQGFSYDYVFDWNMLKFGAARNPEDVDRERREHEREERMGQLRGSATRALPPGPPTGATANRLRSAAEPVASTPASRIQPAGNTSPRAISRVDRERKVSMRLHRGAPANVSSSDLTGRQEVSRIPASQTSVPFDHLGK
Sequence of Serine/threonine-protein kinase B-raf (Homo sapiens), P15056 [V600E] (P15056 whole entry V600E): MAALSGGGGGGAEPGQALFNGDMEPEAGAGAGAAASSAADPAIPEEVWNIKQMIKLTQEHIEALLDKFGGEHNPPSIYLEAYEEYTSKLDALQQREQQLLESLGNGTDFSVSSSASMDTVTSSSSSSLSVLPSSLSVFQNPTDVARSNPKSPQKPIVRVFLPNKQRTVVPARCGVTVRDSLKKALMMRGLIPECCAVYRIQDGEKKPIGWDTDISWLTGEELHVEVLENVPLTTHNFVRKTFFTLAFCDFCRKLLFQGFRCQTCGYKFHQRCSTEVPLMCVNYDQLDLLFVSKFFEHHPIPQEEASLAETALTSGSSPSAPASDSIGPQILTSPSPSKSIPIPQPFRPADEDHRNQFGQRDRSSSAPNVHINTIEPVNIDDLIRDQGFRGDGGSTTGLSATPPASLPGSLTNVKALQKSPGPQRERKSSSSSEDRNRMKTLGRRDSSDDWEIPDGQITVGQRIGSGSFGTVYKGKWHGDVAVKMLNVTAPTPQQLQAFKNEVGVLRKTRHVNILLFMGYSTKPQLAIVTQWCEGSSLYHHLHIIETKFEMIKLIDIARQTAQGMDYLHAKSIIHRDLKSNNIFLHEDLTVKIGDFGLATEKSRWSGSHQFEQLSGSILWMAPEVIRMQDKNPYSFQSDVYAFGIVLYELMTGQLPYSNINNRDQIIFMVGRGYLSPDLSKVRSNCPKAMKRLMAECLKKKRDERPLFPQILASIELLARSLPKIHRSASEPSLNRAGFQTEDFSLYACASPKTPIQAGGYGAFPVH
Sequence of Wee1-like protein kinase (Homo sapiens) (P30291 whole entry, looked up): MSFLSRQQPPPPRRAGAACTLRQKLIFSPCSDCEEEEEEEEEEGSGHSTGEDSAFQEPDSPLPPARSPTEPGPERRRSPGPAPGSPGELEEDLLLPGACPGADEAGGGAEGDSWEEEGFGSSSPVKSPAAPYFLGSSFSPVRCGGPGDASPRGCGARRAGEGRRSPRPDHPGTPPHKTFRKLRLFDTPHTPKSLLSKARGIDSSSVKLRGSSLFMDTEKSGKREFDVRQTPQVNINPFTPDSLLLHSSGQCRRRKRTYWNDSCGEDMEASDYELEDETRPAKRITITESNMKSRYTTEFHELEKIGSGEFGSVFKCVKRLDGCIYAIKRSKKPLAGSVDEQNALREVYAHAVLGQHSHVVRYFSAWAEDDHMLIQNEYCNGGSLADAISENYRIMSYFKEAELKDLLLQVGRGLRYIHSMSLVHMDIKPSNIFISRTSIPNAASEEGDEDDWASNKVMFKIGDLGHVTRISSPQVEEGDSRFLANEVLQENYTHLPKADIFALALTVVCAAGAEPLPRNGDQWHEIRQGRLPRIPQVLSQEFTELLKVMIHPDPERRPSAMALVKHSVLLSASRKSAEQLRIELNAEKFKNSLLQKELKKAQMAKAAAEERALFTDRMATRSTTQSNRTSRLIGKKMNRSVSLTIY
Sequence of Dual specificity mitogen-activated protein kinase kinase 1 (Homo sapiens) (Q02750 whole entry): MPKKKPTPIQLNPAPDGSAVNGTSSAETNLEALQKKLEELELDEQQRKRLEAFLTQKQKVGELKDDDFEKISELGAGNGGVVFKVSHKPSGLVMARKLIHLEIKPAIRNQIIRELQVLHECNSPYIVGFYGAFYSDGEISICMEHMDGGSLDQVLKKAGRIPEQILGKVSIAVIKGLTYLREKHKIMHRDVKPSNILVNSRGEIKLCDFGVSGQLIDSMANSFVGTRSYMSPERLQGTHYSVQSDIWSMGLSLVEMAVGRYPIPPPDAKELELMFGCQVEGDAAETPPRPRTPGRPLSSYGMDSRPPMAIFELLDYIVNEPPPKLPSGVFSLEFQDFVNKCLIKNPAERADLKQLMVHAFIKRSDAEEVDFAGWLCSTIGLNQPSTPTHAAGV
Sequence of Calcium/calmodulin-dependent protein kinase type 1D (Homo sapiens) (Q8IU85 whole entry, looked up): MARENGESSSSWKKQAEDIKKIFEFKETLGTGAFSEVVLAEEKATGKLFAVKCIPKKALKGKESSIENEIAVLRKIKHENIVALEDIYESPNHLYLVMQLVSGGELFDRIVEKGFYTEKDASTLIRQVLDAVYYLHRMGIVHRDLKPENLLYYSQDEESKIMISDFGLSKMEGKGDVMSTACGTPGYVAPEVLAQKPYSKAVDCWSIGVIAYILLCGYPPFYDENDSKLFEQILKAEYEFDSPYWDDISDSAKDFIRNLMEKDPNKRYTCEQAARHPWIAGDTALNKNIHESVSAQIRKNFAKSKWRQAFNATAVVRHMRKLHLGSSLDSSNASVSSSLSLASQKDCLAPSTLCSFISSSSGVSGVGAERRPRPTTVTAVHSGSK

C[C@@H]1CN(c2cc(-c3n[nH]c4ccc(OC5(C)CC5)cc34)ncn2)C[C@H](C)O1 [MLi-2]
inactive: [1] 10.4% | [2] 17.4% | [3] 15.7% | [4] 8.14% | [5] 5.61% | [6] 26.7% | [7] 8.27% | [8] 11.9% | [9] 0.385% | [10] 3% | [11] 12%
